According to patent US10016409B2, “Method for improving interstitial flow” (priority 2012, dated 2018):
Where a name gives a salt, the structure may show the parent alone.

Columns and labels:
[1] = tested on: MCI patients; experiment: Clinical record analysis, MMSE change in MCI patients (MMSE 22 to 26) under donepezil hydrochloride oral administration; format: in vivo, human; conditions: MCI patients MMSE 22-26
Text: Patients subjected to oral administration of donepezil hydrochloride, having an observation period of one or more years before the MMSE test date, and having first MMSE scores less than or equal to 26 were picked up from a clinical record. Among the patients, patients recorded to have been consecutively administered with cilostazol for 6 months or more in the observation period were classified as a donepezil hydrochloride and cilostazol combined use group (69 cases), and patients recorded to have experienced no cilostazol oral administration were classified as a donepezil hydrochloride single use group (87 cases). Cilostazol was oral-administered at a dosage of 50 to 200 mg/day in the morning and evening, and donepezil hydrochloride was administered at a dosage of 5 mg/day once in a day. Among the patients, patients with MMSE scores greater than or equal to 22 and less than or equal to 26 were extracted as an MCI patient group. Then, 36 cases (16 males and 20 females, average age: 78.4 years old) of the donepezil hydrochloride single use group (hereinafter referred to as a single use group) and 34 cases (15 males and 19 females, average age: 77.2 years old) of the donepezil hydrochloride and cilostazol combined use group (hereinafter referred to as combined use group) were found. The average dosage of cilostazol in the combined use group was 121 mg/day. […] Measurement of MMSE was conducted at least twice in the observation period, and the first and last test results were selected for analysis.

[2] = tested on: dementia patients; experiment: Clinical record analysis, MMSE change in dementia patients (MMSE less than or equal to 21) under donepezil hydrochloride oral administration; format: in vivo, human; conditions: dementia patients MMSE less than or equal to 21
Text: Patients subjected to oral administration of donepezil hydrochloride, having an observation period of one or more years before the MMSE test date, and having first MMSE scores less than or equal to 26 were picked up from a clinical record. Among the patients, patients recorded to have been consecutively administered with cilostazol for 6 months or more in the observation period were classified as a donepezil hydrochloride and cilostazol combined use group (69 cases), and patients recorded to have experienced no cilostazol oral administration were classified as a donepezil hydrochloride single use group (87 cases). Cilostazol was oral-administered at a dosage of 50 to 200 mg/day in the morning and evening, and donepezil hydrochloride was administered at a dosage of 5 mg/day once in a day.
As a dementia patient group oral-administered with donepezil hydrochloride, patients with MMSE scores less than or equal to 21 were extracted. Then, the donepezil hydrochloride single use group (the single use group) was 51 cases (17 males and 34 females, average age: 78.2 years old) and the donepezil hydrochloride and cilostazol combined use group (the combined use group) was 35 cases (14 males and 21 females, average age: 79.3 years old). The average dosage of cilostazol in the combined use group was 139 mg/day.

[3] = tested on: MCI patients; conditions: cited from earlier work; for conversion from MCI to Alzheimer: Non-patent Document 3; for effectiveness on MCI patients: clinical trials, Guidelines for Management of Dementia

With `COc1cc2c(cc1OC)C(=O)C(CC1CCN(Cc3ccccc3)CC1)C2` (stereo not drawn) [donepezil hydrochloride] the MMSE change rate ([1]; increment or decrement of MMSE score/observation period [year], average±standard error, p=0.022 between groups) was −2.23±0.69, the “change rate of MMSE item 1 of orientation to time” value ([1]; per observation period [year], p=0.003) was −0.85 and the “change rate of MMSE item 2 of orientation to location” value ([1]; per observation period [year], p=0.017) was −0.31. The “change rate of MMSE item 5 of delayed recall” value ([1]; per observation period [year], p=0.045) was −0.28, the “change rate of MMSE item 5 of delayed recall” value ([2]; p=0.37) was −0.15 and the “change rate of MMSE item 2 of orientation to location” value ([2]; p=0.86) was −0.13. The “change rate of MMSE item 1 of orientation to time” value ([2]; p=0.89) was −0.16, the MMSE change rate ([2]; per observation period, average±standard error, p=0.72 between groups) was −0.90±037 and the “conversion from MCI to Alzheimer” value [3] was “do not affect conversion from MCI to Alzheimer”. For the same compound, the “effectiveness on MCI patients” value [3] was “very limited or is not present”.

In the case of `CCN(C)C(=O)Oc1cccc([C@H](C)N(C)C)c1` [rivastigmine], the “effectiveness on MCI patients” value [3] is given as “very limited or is not present”.

For `CS(=O)(=O)c1ccc(C2=C(c3ccccc3)C(=O)OC2)cc1` [rofecoxib], the “prophylactic effects (dementia or MCI)” value ([3]; guideline p. 116, Other Drugs (2)) is given as “no prophylactic effects”.

In the case of estrogen, the “risk of onset of dementia or MCI” value ([3]; RCT, postmenopausal women of 65 years of age or more without dementia) is listed as “increased the risk of onset of dementia or MCI significantly”.

For vitamin E, the “conversion from MCI to Alzheimer” value [3] is given as “do not affect conversion from MCI to Alzheimer” and the “dementia prophylactic effect / prophylactic effect against conversion to Alzheimer” value ([3]; RCT directed to MCI patients) is given as “neither dementia prophylactic effect nor prophylactic effect against conversion to Alzheimer was obtained”.
